Experimental findings from ChEMBL document CHEMBL4000183, “Phenylpropanoids from Juglans mandshurica exhibit cytotoxicities on liver cancer cell lines through apoptosis induction” (Bioorg Med Chem Lett, 2017) are described below.

For experiment [1], the system named is HepG2. The experiment is described as follows: Cytotoxic activity against human HepG2 cells assessed as growth inhibition after 48 hrs by MTT assay. The experiment is classed as functional, cell-based. On the technique in general: Tetrazolium assays rely on reduction of a dye to a coloured formazan, in cell work by metabolically active cells.
Experiment [2] has as its system Hep 3B2. As to the kind of experiment: Cytotoxic activity against human Hep3B cells assessed as growth inhibition after 48 hrs by MTT assay. The experiment is classed as functional, cell-based.
Experiment [3] deals with HepG2. The experiment is described as follows: Induction of apoptosis in human HepG2 cells assessed as chromatin condensation at 60 uM after 48 hrs by AO staining-based phase contrast microscopic analysis. In kind it is functional, cell-based.
Experiment [4] concerns HepG2. The experiment is described as follows: Cytotoxic activity against human HepG2 cells assessed as growth inhibition at 100 uM after 48 hrs by MTT assay. As to conditions: HepG2, 48 h, read-out: GI. In kind it is functional.
Experiment [5] relates to HepG2. The experiment is described as follows: Cytotoxic activity against human HepG2 cells assessed as growth inhibition at 25 uM after 48 hrs by MTT assay. In kind it is functional. As to conditions: HepG2, 48 h, read-out: GI.
In experiment [6] the test system is Hep 3B2. As to the kind of experiment: Induction of apoptosis in human Hep3B cells assessed as increase in cleaved-caspase 7 level at 50 uM after 48 hrs by Western blot analysis. The experiment is classed as functional, cell-based.
Experiment [7] has as its system HepG2. The experiment is described as follows: Induction of apoptosis in human HepG2 cells assessed as increase in cleaved PARP level at 60 uM after 48 hrs by Western blot analysis. The experiment is classed as functional, cell-based.
For experiment [8], the system named is Hep 3B2. As to the kind of experiment: Cytotoxic activity against human Hep3B cells assessed as growth inhibition at 25 uM after 48 hrs by MTT assay. The experiment is classed as functional. As to conditions: read-out: GI.
Experiment [9] deals with Hep 3B2. As to the kind of experiment: Induction of apoptosis in human Hep3B cells assessed as chromatin condensation at 50 uM after 48 hrs by AO staining-based phase contrast microscopic analysis. The experiment is classed as functional, cell-based.
Experiment [10] deals with HepG2. The experiment is described as follows: Cytotoxic activity against human HepG2 cells assessed as growth inhibition at 50 uM after 48 hrs by MTT assay. In kind it is functional. As to conditions: HepG2, 48 h, read-out: GI.
For experiment [11], the system named is Hep 3B2. As to the kind of experiment: Induction of apoptosis in human Hep3B cells assessed as increase in cleaved PARP level at 50 uM after 48 hrs by Western blot analysis. In kind it is functional, cell-based. A general note: In western blotting, separated proteins are transferred to a membrane and probed.
Experiment [12] has as its system Hep 3B2. As to the kind of experiment: Cytotoxic activity against human Hep3B cells assessed as growth inhibition at 100 uM after 48 hrs by MTT assay. In kind it is functional. As to conditions: read-out: GI.
In experiment [13] the test system is HepG2. The experiment is described as follows: Induction of apoptosis in human HepG2 cells assessed as increase in cleaved-caspase 9 level at 60 uM after 48 hrs by Western blot analysis. In kind it is functional, cell-based.
Experiment [14] concerns HepG2. As to the kind of experiment: Cytotoxic activity against human HepG2 cells assessed as growth inhibition at 12.5 uM after 48 hrs by MTT assay. In kind it is functional. As to conditions: HepG2, 48 h, read-out: GI.
Experiment [15] deals with Hep 3B2. The experiment is described as follows: Induction of apoptosis in human Hep3B cells assessed as nuclear fragmentation at 50 uM after 48 hrs by AO staining-based phase contrast microscopic analysis. In kind it is functional, cell-based.
The subject of experiment [16] is HepG2. The experiment is described as follows: Induction of apoptosis in human HepG2 cells assessed as decrease in pro-caspase 9 level at 60 uM after 48 hrs by Western blot analysis. In kind it is functional, cell-based.
Experiment [17] concerns Hep 3B2. As to the kind of experiment: Cytotoxic activity against human Hep3B cells assessed as growth inhibition at 50 uM after 48 hrs by MTT assay. The experiment is classed as functional. The note with it: read-out: GI.
The test system of experiment [18] is Hep 3B2. As to the kind of experiment: Cytotoxic activity against human Hep3B cells assessed as growth inhibition at 6.25 uM after 48 hrs by MTT assay. The note with it: read-out: GI. In kind it is functional.
The test system of experiment [19] is Hep 3B2. The experiment is described as follows: Induction of apoptosis in human Hep3B cells assessed as increase in cleaved-caspase 9 level at 50 uM after 48 hrs by Western blot analysis. The experiment is classed as functional, cell-based.
The subject of experiment [20] is HepG2. As to the kind of experiment: Cytotoxic activity against human HepG2 cells assessed as growth inhibition at 6.25 uM after 48 hrs by MTT assay. In kind it is functional. As to conditions: HepG2, 48 h, read-out: GI.
For experiment [21], the system named is Hep 3B2. The experiment is described as follows: Induction of apoptosis in human Hep3B cells assessed as increase in Bax level at 50 uM after 48 hrs by Western blot analysis. In kind it is functional, cell-based.
Experiment [22] relates to Hep 3B2. The experiment is described as follows: Induction of apoptosis in human Hep3B cells assessed as decrease in pro-caspase 9 level at 50 uM after 48 hrs by Western blot analysis. The experiment is classed as functional, cell-based.
The test system of experiment [23] is Hep 3B2. As to the kind of experiment: Induction of apoptosis in human Hep3B cells assessed as decrease in Bcl-2 level at 50 uM after 48 hrs by Western blot analysis. The experiment is classed as functional, cell-based.
For experiment [24], the system named is HepG2. As to the kind of experiment: Induction of apoptosis in human HepG2 cells assessed as increase in cleaved-caspase 7 level at 60 uM after 48 hrs by Western blot analysis. In kind it is functional, cell-based.
Experiment [25] deals with HepG2. The experiment is described as follows: Induction of apoptosis in human HepG2 cells assessed as increase in Bax level at 60 uM after 48 hrs by Western blot analysis. In kind it is functional, cell-based.
For experiment [26], the system named is HepG2. As to the kind of experiment: Induction of apoptosis in human HepG2 cells assessed as decrease in Bcl-2 level at 60 uM after 48 hrs by Western blot analysis. In kind it is functional, cell-based.
Experiment [27] relates to Hep 3B2. As to the kind of experiment: Induction of apoptosis in human Hep3B cells assessed as decrease in pro-caspase 7 level at 50 uM after 48 hrs by Western blot analysis. In kind it is functional, cell-based.
Experiment [28] relates to HepG2. The experiment is described as follows: Induction of apoptosis in human HepG2 cells assessed as formation of apoptotic bodies at 60 uM after 48 hrs by AO staining-based phase contrast microscopic analysis. In kind it is functional, cell-based.
The test system of experiment [29] is HepG2. The experiment is described as follows: Induction of apoptosis in human HepG2 cells assessed as decrease in pro-caspase 7 level at 60 uM after 48 hrs by Western blot analysis. In kind it is functional, cell-based.
Experiment [30] has as its system HepG2. As to the kind of experiment: Induction of apoptosis in human HepG2 cells assessed as nuclear fragmentation at 60 uM after 48 hrs by AO staining-based phase contrast microscopic analysis. The experiment is classed as functional, cell-based.
Experiment [31] concerns Hep 3B2. As to the kind of experiment: Cytotoxic activity against human Hep3B cells assessed as growth inhibition at 12.5 uM after 48 hrs by MTT assay. The experiment is classed as functional. As to conditions: read-out: GI.
Experiment [32] has as its system Hep 3B2. As to the kind of experiment: Induction of apoptosis in human Hep3B cells assessed as decrease in PARP level at 50 uM after 48 hrs by Western blot analysis. In kind it is functional, cell-based.
Experiment [33] relates to Hep 3B2. The experiment is described as follows: Induction of apoptosis in human Hep3B cells assessed as cell shrinkage at 50 uM after 48 hrs by AO staining-based phase contrast microscopic analysis. The experiment is classed as functional.
Experiment [34] relates to HepG2. As to the kind of experiment: Induction of apoptosis in human HepG2 cells assessed as decrease in PARP level at 60 uM after 48 hrs by Western blot analysis. In kind it is functional, cell-based.

The source made the active and inactive calls. The rule behind the calls is not given here.

Consider `CC(/C=C\Oc1ccc(/C=C/CO)cc1)CO` (centres undefined), for which the “growth inhibition (GI)” value with HepG2 [1] is reported as 7.81%; in the experiment on Hep 3B2 [2] it was -15.72%.
The like results for `CC(CO)CCOc1ccc(C=O)cc1` (centres undefined) were, in that order, -1.05% and 27.41%.
The IC50 is the concentration that inhibits the measured activity by half. On to `C/C(=C\COc1ccc(/C=C/C=O)cc1)CO`, for which the outcome in the experiment on HepG2 [3], with Hep 3B2 [6], in the experiment on HepG2 [7], with Hep 3B2 [9], in the experiment on Hep 3B2 [11] and in the experiment on HepG2 [13] was Active. For the same compound, the result in the experiment with Hep 3B2 [15], in the experiment with HepG2 [16], in the experiment with Hep 3B2 [19], in the experiment with Hep 3B2 [21], in the experiment with Hep 3B2 [22] and in the experiment with Hep 3B2 [23] was Active. In addition, the outcome with HepG2 [24], in the experiment on HepG2 [25], in the experiment with HepG2 [26], in the experiment on Hep 3B2 [27], in the experiment on HepG2 [28] and in the experiment with HepG2 [29] was Active. The outcome in the experiment on HepG2 [30], with Hep 3B2 [32], with Hep 3B2 [33] and in the experiment with HepG2 [34] was Active. The inhibition of growth at 100 µM in the experiment with HepG2 [4] came to 69.2%; with Hep 3B2 [12], 91.5%. Moreover, the results for the inhibition of growth at 25 µM in the experiment on HepG2 [5] and with Hep 3B2 [8] were 7.01% and 11.6%, respectively. Further, the inhibition of growth at 50 µM in the experiment on HepG2 [10] was 52%; with Hep 3B2 [17] it was 77.7%. The inhibition of growth at 12.5 µM with HepG2 [14] amounted to 12.2%; with Hep 3B2 [31], 9.1%. The values for the inhibition of growth at 6.25 µM in the experiment on Hep 3B2 [18] and in the experiment with HepG2 [20] were -4.83% and -9.7%, respectively. Also, the results for the “growth inhibition (GI)” value with HepG2 [1] and with Hep 3B2 [2] were 87.79% and 93.78%, respectively. The IC50 worked out at 63.7 µM in the experiment with HepG2 [1] (Homo sapiens, HepG2, 48 h) and 46.5 µM with Hep 3B2 [2] (Homo sapiens, Hep3B, 48 h).
Consider `COC(=O)/C=C/c1ccc(OC/C=C(\C)CO)cc1`, for which the “growth inhibition (GI)” value is 86.42% in the experiment with HepG2 [1] and 26.16% in the experiment with Hep 3B2 [2].
For `CC(/C=C\Oc1ccc(CCCO)cc1)CO` (single isomer, unassigned; (+)) the same measures were 13.76% and 69.59%.
